Measurements published in US8945627B2, “Micelles for the solubilization of gossypol” (priority 2011, dated 2015).
Values joined by “and” are separate entries in the source; they are usually repeats but may differ in a detail not shown here. Equal entries are not always repeated. Where two headings read alike, the source gives them in different places.

Assays:
[1] = neutral pH; cited from earlier work
[2] = format: physicochemical
Method: Acetone was evaporated from the aqueous micelle solution under reduced pressure using a rotatory evaporator at 60° C.
(§1) Samples for RP-HPLC were prepared by adding acetonitrile (ACN) into each micelle to break it apart and quantify drugs dissolved in ACN.

[3] = format: physicochemical; remark: listed apart in the source
Method: Acetone was evaporated from the aqueous micelle solution under reduced pressure using a rotatory evaporator at 60° C. The thin film of “polymer plus drug mixture” was reconstituted with 1 mL of 0.9% saline at 60° C.
as §1

[4] = test system: ES-2 ovarian monolayer cells; assay: cells; format: cell-based
[5] = test system: ES-2 ovarian multicellular spheroids; assay: cells; format: cell-based; settings: read-out: IC50 values (nM), Spheroids (BLI)
Method: Surviving cells after treatment were quantified by scanning bioluminescence of luc-ES-2 cells (IVIS optical imaging system).
The images of FIG. 7 were collected using an inverted light microscope on spheroids treated with PEG5k-b-PCL10k micelles representing 1000 nM of total drug concentration. In advance, to obtain luciferase-expressing ES-2 cells, ES-2 cells were transfected with pGL4 with neomycin resistance using Lipofectamine 2,000.
Bioluminescence of surviving cells was quantified and IC50 value was calculated by using Compusyn.

[6] = 200 mg polymer
Method: (§2) Supernatant was collected and drug contents were analyzed by RP-HPLC analysis.

[7] = PEG-b-PCL micelle stability tests (drug quantification)
Method: as §2

[8] = test system: A549 NSCLC Cells; assay: In vitro cytotoxicity, resazurin cell viability assay; format: cell-based; settings: Homo sapiens
Method: Cytotoxicity was determined using a resazurin cell viability assay. A549 cells were cultured in RPMI1640, supplemented with 10% FBS, 100 IU/mL penicillin, 100 μg/mL streptomycin, and 2 mM of L-glutamine. The cells were incubated at 37° C., 5% CO2 atmosphere. Exponentially grown cells were detached from the T-flask by adding a Trypsin-EDTA solution.
Each drug was dissolved at 10 mM as a stock solution using dimethyl sulfoxide (DMSO). […] The stock solution was diluted with cell culture media and the final concentration of DMSO was less than 0.1%. […] The fraction of viable cells were determined using a Cell titer Blue® dye assay (Promega, USA) by monitoring using fluorescence at 590 nm (emission). The inhibitory drug concentration (IC50) was determined by the median-effect equation using compusyn software (Combosyn Inc., US). The determination of IC50 was performed in three independent experiments.
The half maximal inhibitory drug concentration (IC50) was determined by the median-effect equation:
[formula] using CompuSyn software (Version 1.0, ComboSyn Inc., US). In the median-effect equation, fa is the fraction of affected cells; D is drug concentration; and m is the Hill slope or kinetic order.

[9] = Stability of the poloxamer micelle solution, 24 hours at ambient temperature; settings: Pluronic F68 micelles, gossypol + paclitaxel
Method: The drugs remaining in the solution were quantified by RP-HPLC described above. The micelle solution was centrifuged at 13,000 rpm for 5 minutes and was then filtered with a 0.45 μm nylon filter to remove any drug aggregates in the micelle solution. The concentration of each drug was compared with that of each drug at initial preparation to estimate the stability of micelle solution.

[10] = singly-loaded poloxamer 188 micelles
[11] = polymer 10 mg/ml, CYP + GSP micelles
[12] = polymer 10 mg/ml, PTX + CYP + GSP micelles
[13] = polymer 10 mg/ml, PTX + CYP micelles
[14] = polymer 10 mg/ml, single drug micelles
[15] = polymer 20 mg/ml, PTX + CYP + GSP micelles
[16] = polymer 100 mg/ml, PTX + CYP + GSP micelles
[17] = polymer 200 mg/ml, CYP + GSP micelles
[18] = polymer 200 mg/ml, PTX + CYP + GSP micelles
[19] = polymer 200 mg/ml, PTX + CYP micelles
[20] = PTX/CYP/GSP poloxamer 188 micelles
[21] = 1-in-1 PEG5k-b-PCL10k micelles, 200 mg polymer
[22] = 1-in-1 micelles, 10× decreased drug loading
[23] = 2-in-1 CYP + GSP micelles, 200 mg polymer
[24] = 2-in-1 CYP + GSP micelles, 10× decreased drug loading
[25] = 2-in-1 PTX + CYP micelles, 200 mg polymer
[26] = 2-in-1 PTX + CYP micelles, 10× decreased drug loading
[27] = 3-in-1 PTX + CYP + GSP micelles, 200 mg polymer
[28] = 3-in-1 PTX + CYP + GSP micelles, 10× decreased drug loading
[29] = PEG5k-b-PCL10k micelles, Celltiter Blue readout, read-out: IC50 values (nM), Monolayer (Celltiter Blue)
[30] = PEG5k-b-PCL10k micelles, bioluminescence readout, read-out: IC50 values (nM), Monolayer (BLI)
[31] = PEG5k-b-PCL10k micelles, bioluminescence readout
[32] = 2-in-1 PTX + GSP micelles, 200 mg polymer
[33] = 2-in-1 PTX + GSP micelles, 10× decreased drug loading

C=CCNC1=C2C[C@@H](C)C[C@H](OC)[C@H](O)[C@@H](C)/C=C(\C)[C@H](OC(N)=O)[C@@H](OC)/C=C\C=C(/C)C(=O)NC(=CC1=O)C2=O [17-AAG, 17-allylamino-17-demethoxygeldanamycin]
drug level in water [10]: 210 µg/mL | water solubility [1]: about 0.1 mg/mL

CC1=C2C[C@H]3[C@@H](CC=C4C[C@@H](O)CC[C@@]43C)[C@@H]2CC[C@]12O[C@@H]1C[C@H](C)CN[C@H]1[C@H]2C [CYP, 11-deoxojervine]
drug loaded [2, 11]: 1.50 ± 0.50 mg/mL | drug loaded [2, 12]: 1.03 ± 0.02 mg/mL | drug loaded [2, 13]: 0.14 ± 0.06 mg/mL | drug loaded [2, 14]: 0.05 ± 0.03 mg/mL | drug loaded [2, 15]: 1.25 ± 0.11 mg/mL | drug loaded [2, 16]: 4.47 ± 0.38 mg/mL | drug loaded [2, 17]: 3.23 ± 0.99 mg/mL | drug loaded [2, 18]: 6.2 mg/mL and 6.20 ± 0.49 mg/mL | drug loaded [2, 19]: 0.89 ± 0.03 mg/mL | drug loaded [3, 11]: 0.16 ± 0.04 mg/mL | drug loaded [3, 12]: 0.21 ± 0.07 mg/mL | drug loaded [3, 13]: 0.03 ± 0.001 mg/mL | drug loaded [3, 14]: 0.012 ± 0.002 mg/mL | drug loaded [3, 15]: 0.27 ± 0.07 mg/mL | drug loaded [3, 16]: 3.55 ± 0.18 mg/mL | drug loaded [3, 17]: 3.5 ± 0.3 mg/mL | drug loaded [3, 18]: 5.1 mg/mL and 5.09 ± 0.29 mg/mL | drug loaded [3, 19]: 0.08 ± 0.02 mg/mL | IC50 ([4]; read-out: IC50 values (nM), Monolayer (BLI)): 240 nM | IC50 ([4]; read-out: IC50 values (nM), Monolayer (Celltiter Blue)): 245 nM | IC50 [5]: 64.8 nM | % Remaining Day 0 ([6]; CYP/GSP poloxamer 188 micelles): 100 ± 7.4% | % Remaining Day 1 ([6]; CYP/GSP poloxamer 188 micelles): 106.9 ± 3.4% | % Remaining Day 0 [6, 20]: 100 ± 4.9% | % Remaining Day 1 [6, 20]: 101.2 ± 2.3% | % Remaining Day 0 [7, 21]: 100 ± 10.6% | % Remaining Day 1 [7, 21]: 96.3 ± 5.0% | % Remaining Day 0 [7, 22]: 100 ± 7.9% | % Remaining Day 1 [7, 22]: 96.0 ± 4.4% | % Remaining Day 0 [7, 23]: 100 ± 8.2% | % Remaining Day 1 [7, 23]: 91.0 ± 5.3% | % Remaining Day 0 [7, 24]: 100 ± 5.9% | % Remaining Day 1 [7, 24]: 96.5 ± 4.4% | % Remaining Day 0 [7, 25]: 100 ± 11.3% | % Remaining Day 1 [7, 25]: 97.4 ± 5.7% | % Remaining Day 0 [7, 26]: 100 ± 5.5% | % Remaining Day 1 [7, 26]: 94.3 ± 5.3% | % Remaining Day 0 [7, 27]: 100 ± 6.1% | % Remaining Day 1 [7, 27]: 36.8 ± 1.5% | % Remaining Day 0 [7, 28]: 100 ± 4.2% | % Remaining Day 1 [7, 28]: 87.7 ± 2.6%

Cc1cc2c(C(C)C)c(O)c(O)c(C=O)c2c(O)c1-c1c(C)cc2c(C(C)C)c(O)c(O)c(C=O)c2c1O [Gossypol, gossypol]
IC50 ([8]; A549, 72 h): 6500 ± 3400 nM | IC50 [4, 29]: > 100000 nM | IC50 [4, 30]: > 100000 nM | IC50 [5, 31]: 4820 nM | drug level in water (2-in-1 poloxamer 188 micelles, gossypol + 17-AAG): 5180 ± 470 µg/mL | drug level in water (2-in-1 poloxamer 188 micelles, gossypol + paclitaxel): 4650 ± 620 µg/mL | drug level in water (2-in-1 poloxamer 188 micelles, gossypol + paclitaxel, listed as gossypol): 4650 µg/mL | drug level in water [10]: 5410 ± 140 µg/mL | % Remaining Day 0 [7, 21]: 100 ± 4.7% | % Remaining Day 1 [7, 21]: 89.4 ± 3.3% | % Remaining Day 0 [7, 22]: 100 ± 5.6% | % Remaining Day 1 [7, 22]: 98.3 ± 3.6% | % Remaining Day 0 [7, 23]: 100 ± 4.9% | % Remaining Day 1 [7, 23]: 89.8 ± 3.7% | % Remaining Day 0 [7, 24]: 100 ± 4.1% | % Remaining Day 1 [7, 24]: 95.4 ± 3.6% | % Remaining Day 0 [7, 32]: 100 ± 4.4% | % Remaining Day 1 [7, 32]: 97.0 ± 2.5% | % Remaining Day 0 [7, 33]: 100 ± 7.1% | % Remaining Day 1 [7, 33]: 89.5 ± 3.8% | % Remaining Day 0 [7, 27]: 100 ± 3.8% | % Remaining Day 1 [7, 27]: 82.3 ± 2.6% | % Remaining Day 0 [7, 28]: 100 ± 3.8% | % Remaining Day 1 [7, 28]: 81.0 ± 3.0%

CC(=O)O[C@H]1C(=O)[C@@]2(C)[C@H]([C@H](OC(=O)c3ccccc3)[C@]3(O)C[C@H](OC(=O)[C@H](O)[C@@H](NC(=O)c4ccccc4)c4ccccc4)C(C)=C1C3(C)C)[C@]1(OC(C)=O)CO[C@@H]1C[C@@H]2O [Paclitaxel, paclitaxel]
IC50 ([8]; A549, free drugs in DMSO stock, 72 hours, n = 3, mean ± SD, two drug combinations molar ratio 1:1, three drug 5:5:1, read-out: IC50): 616 ± 418 nM | drug loaded [3, 12]: 0.38 ± 0.12 mg/mL | drug loaded [3, 13]: 0.01 ± 0.001 mg/mL | drug loaded ([3]; polymer 10 mg/ml, PTX + GSP micelles): 0.87 ± 0.09 mg/mL | drug loaded [3, 14]: 0.014 ± 0.002 mg/mL | drug loaded [3, 15]: 0.63 ± 0.14 mg/mL | drug loaded ([3]; polymer 200 mg/ml, PTX + CYP + GSP micelles, listed as PTX): 6.4 mg/mL and 6.41 ± 0.63 mg/mL | drug loaded [3, 19]: 0.01 ± 0.01 mg/mL | drug loaded ([3]; polymer 200 mg/ml, PTX + GSP micelles): 3.49 ± 0.39 mg/mL | IC50 [4, 29]: 13 nM | IC50 [4, 30]: 12 nM | IC50 [5, 31]: 8.7 nM | % Remaining Day 0 [7, 21]: 100 ± 9.3% | % Remaining Day 1 [7, 21]: 34.3 ± 3.1% | % Remaining Day 0 [7, 22]: 100 ± 8.3% | % Remaining Day 1 [7, 22]: 89.7 ± 5.2% | % Remaining Day 0 [7, 25]: 100 ± 12.6% | % Remaining Day 1 [7, 25]: 27.0 ± 2.9% | % Remaining Day 0 [7, 26]: 100 ± 6.2% | % Remaining Day 1 [7, 26]: 90.7 ± 5.1% | % Remaining Day 0 [7, 32]: 100 ± 9.4% | % Remaining Day 1 [7, 32]: 66.8 ± 4.1% | % Remaining Day 0 [7, 33]: 100 ± 6.3% | % Remaining Day 1 [7, 33]: 93.2 ± 4.9% | % Remaining Day 0 [7, 27]: 100 ± 4.7% | % Remaining Day 1 [7, 27]: 99.3 ± 2.2% | % Remaining Day 0 [7, 28]: 100 ± 3.6% | % Remaining Day 1 [7, 28]: 87.9 ± 2.7% | % w/w drug(s) @ 24 hr [9]: 63.4 ± 35.4 % w/w | Initial drug level in water [9]: 6.53 ± 0.31 mg/mL | Drug level @ 24 hrs in water ([9]; ambient temperature): 4110 ± 2260 µg/mL
